Experimental data reported in patent US20180015070A1, “METHODS AND COMPOSITIONS FOR UPREGULATING ENDOGENOUS ANTIOXIDANT SYSTEMS” (USANA Health Sciences, Inc., priority 2016, published 2018).
Where two headings read alike, the source gives them in different places. Marks after values point to notes of the source that are not given here. One block for each compound: values may come before it.

Key:
[1] = test system: NF-κB reporter cells (HEK293); details: human, 24 h
[2] = test system: human Nrf2; assay: Nrf2 reporter assay, agonist mode (native receptor, ARE-luciferase, CV1); type: cell-based; details: for agonist activity against human Nrf2: at the concentrations tested
[3] = test system: Nrf2; assay: Nrf2 signaling fluorescent reporter assay in human retinal epithelial cell line; type: cell-based; details: for minimum inducing concentration (Nrf2): human retinal epithelial cell line
Method: The assays were carried out with a fluorescent reporter assay that utilized a human retinal epithelial cell line. The assays also included validation by RT-PCR (reverse transcription polymerase chain reaction) of Nrf2 target genes. The human retinal epithelial cell line was purchased from ATCC (American Type Cell Culture, Manassas, Va.) and was configured to function as a fluorescent reporter assay. Test solutions of each of the alpha lipoic acid, resveratrol, curcumin, EGCG, Olivol®, rutin, quercetin, and hesperetin were prepared by serial dilution. Control solutions were also prepared. Positive control solutions of a known Nrf2 agonist, L-sulphoraphane was also prepared. Each test solution was then assayed for Nrf2 signaling activity using the fluorescent reporter assay and compared to control assays. The positive control solutions were also tested.

[4] = test system: C. elegans strain CB5586 worms; assay: phenotypic lifespan screening with C. elegans; type: in vivo; details: for anti-ageing activity / effect on chronological lifespan: over the concentrations tested; for population age in days at 25% mortality: DMSO control 11; for population age in days at 50% mortality: DMSO control 14; for population age in days at 75% mortality: DMSO control 16
Method: Dilutions of the test formulations were applied to individual populations of C. elegans and the lifespan of each population was monitored. Any changes in the lifespan of an individual population compared to a control population were recorded and correlated to the respective test formulation (N356 or N357) and the respective dilution (0.1 mg/ml, 1 mg/ml, and 10 mg/ml).
The N356 and N357 formulations were each prepared as individual 100 mg/ml stock solutions in dimethyl sulfoxide (DMSO). Serial dilutions of each stock solution were then prepared at 0.1 mg/ml, 1 mg/ml, and 10 mg/ml in DMSO. Control solutions of DMSO only were also prepared. Synchronous aged adult populations of C. elegans strain CB5586 worms were prepared. The CB5586 strain comprises a pharyngeal GFP (green fluorescent protein) tag and a mutation in the bus-5 gene. The pharyngeal GFP tag allows for fluorescent images of the worm populations to be taken. The mutation in the bus-5 gene causes the loss of normal cuticle antigens that permits the cuticle of the worms to become permeable to the test formulations and allow direct uptake of the test formulations to avoid interaction of the test formulations with protective mechanisms of the gut channel. Each serial dilution of each test formulation was added to a separate population of the prepared worms. The control solutions were also added to separate populations of the prepared worms. The populations of the prepared worms were then maintained on standard nematode growth media (NGM) agar plates at 20° C. with sufficient food (Escherichia coli strain OP-50).
Each worm population was then monitored by fluorescent imaging to determine the number of living and dead worms as a function of time. The fluorescent imaging was analyzed by software that recognized and counted worms based on their fluorescent intensity compared to background fluorescence. […] The ability to distinguish between living and dead worms allowed the number of living worms and cumulative number of dead worms to be monitored against time. Worm populations from a selection of fluorescent images were manually checked to verify that the software had accurately counted the number of living and dead worms.
The counts of the living and dead worms as a function of time were then analyzed for each of the worm populations and used to prepare Kaplan-Meier survival curves and associated statistics for each of the worm populations. […] The median lifespan is shown as the length of time after the last mitotic division that 50% of the test population remains viable when compared to the control population. The maximum lifespan extension is shown as the length of time after the last mitotic division that 5% of the test population remains viable when compared to the control population.
The counts of the living and dead worms as a function of time and the Kaplan-Meier survival curves and the associated statistics were then analyzed for each of the worm populations. The analysis included determining mean and median lifespan. The analysis included a non-parametric test, the Log-Rank test, which compares two survival functions for the overall lifespan assay and provides a reliable p-value summarizing the whole experiment. The analysis also included Fisher's Exact Test that calculated the significance of survival function comparisons at multiple specific time points throughout the experiment, rather than for the overall lifespan. The results of the analysis are shown below in Tables 10-17. […]

[5] = 0.1 mg/ml, compared to DMSO control
[6] = 10 mg/ml, compared to DMSO control
[7] = at 10 μM and 1 (unit not given)

Structure (SMILES): O=C(O)CCCCC1CCSS1 (racemic) [Alpha lipoic acid, alpha lipoic acid]
- NF-κB % Live Cell ([1]; 1.42 μg/ml): 100%
- Nrf2 Fold-Activation ([2]; 1.42 μg/ml active ingredient): 1.4 fold
- Nrf2 Fold-Activation ([2]; 4.25 μg/ml active ingredient): 1.4 fold
- Nrf2 Fold-Activation ([2]; 12.7 μg/ml active ingredient): 1.5 fold
- Nrf2 Fold-Activation ([2]; 38.23 μg/ml active ingredient): 1.5 fold
- Nrf2 Fold-Activation ([2]; 114.70 μg/ml active ingredient): 2.4 fold
- agonist activity against human Nrf2 [2]: very low-level agonist activity
- activation of Nrf2 against a control ([3]; at 100 μM and 30 (unit not given)): demonstrated activation of Nrf2
- minimum inducing concentration (Nrf2) [3]: 1.75 µM
- anti-ageing activity / effect on chronological lifespan [4]: significant positive and dose dependent increase of chronological lifespan

Structure (SMILES): COc1cc(/C=C/C(=O)CC(=O)/C=C/c2ccc(O)c(OC)c2)ccc1O [Curcumin, curcumin]
- NF-κB % Live Cell ([1]; 0.6 μg/ml): 99%
- NF-κB % Live Cell ([1]; 1.81 μg/ml): 97%
- Nrf2 Fold-Activation ([2]; 0.007 μg/ml active ingredient): 1.6 fold
- Nrf2 Fold-Activation ([2]; 0.022 μg/ml active ingredient): 1.7 fold
- Nrf2 Fold-Activation ([2]; 0.067 μg/ml active ingredient): 1.4 fold
- Nrf2 Fold-Activation ([2]; 0.20 μg/ml active ingredient): 0.96 fold
- Nrf2 Fold-Activation ([2]; 0.60 μg/ml active ingredient): 1.0 fold
- Nrf2 Fold-Activation ([2]; 1.81 μg/ml active ingredient): 1.6 fold

Structure (SMILES): COc1ccc([C@@H]2CC(=O)c3c(O)cc(O[C@@H]4O[C@H](CO[C@@H]5O[C@@H](C)[C@H](O)[C@@H](O)[C@H]5O)[C@@H](O)[C@H](O)[C@H]4O)cc3O2)cc1O [N347, Hesperidin]
- % Change in Mean Lifespan [4, 5]: +10%
- extension of lifespan ([4]; 0.1 mg/ml, vs DMSO control): about 10%
- population age in days at 25% mortality ([4]; 0.1 mg/ml): 11 days
- population age in days at 50% mortality ([4]; 0.1 mg/ml): 16 days
- population age in days at 75% mortality ([4]; 0.1 mg/ml): 18 days
- Statistically Significant Result [4, 6]: No statistical difference
- population age in days at 25% mortality ([4]; 10 mg/ml): 11 days
- population age in days at 50% mortality ([4]; 10 mg/ml): 14 days
- population age in days at 75% mortality ([4]; 10 mg/ml): 18 days
- anti-ageing activity / effect on chronological lifespan [4]: significant positive and dose dependent increase of chronological lifespan

Now from value to compound, other results behind:

- NF-κB % Live Cell ([1]; 0.043 μg/ml): 98%
- NF-κB % Live Cell ([1]; 0.389 μg/ml): 99%
- NF-κB % Live Cell ([1]; 1.167 μg/ml): 98%
- NF-κB % Live Cell ([1]; 3.5 μg/ml): 96%
Structure (SMILES): COc1ccc([C@@H]2CC(=O)c3c(O)cc(O)cc3O2)cc1O [Hesperetin, (S)-2,3-Dihydro-5,7-dihydroxy-2-(3-hydroxy-4-methoxyphenyl)-4H-1-benzopyran-4-one]
- Nrf2 Fold-Activation ([2]; 0.043 μg/ml active ingredient): 1.4 fold
- Nrf2 Fold-Activation ([2]; 0.389 μg/ml active ingredient): 1.3 fold
- Nrf2 Fold-Activation ([2]; 1.167 μg/ml active ingredient): 1.5 fold
- Nrf2 Fold-Activation ([2]; 3.5 μg/ml active ingredient): 0.94 fold

- NF-κB % Live Cell ([1]; 23 μg/ml): 97%
- NF-κB % Live Cell ([1]; 68 μg/ml): 77*** %
- agonist activity against human Nrf2 [2]: low-level agonist activity
Structure (SMILES): O=c1c(O)c(-c2ccc(O)c(O)c2)oc2cc(O)cc(O)c12 [Quercetin, 2-(3,4-dihydroxyphenyl)-3,5,7-trihydroxy-4H-chromen-4-one]
- concentration giving more Nrf2 activation ([3]; 10 μM compared with 1 μM): more activation at the 1 μM concentration
- activation of Nrf2 against a control [3, 7]: demonstrated activation of Nrf2
- minimum inducing concentration (Nrf2) [3]: 0.55 µM
- Statistically Significant Result [4, 6]: No statistical difference
- anti-ageing activity / effect on chronological lifespan [4]: significant negative effect on chronological lifespan

- NF-κB % Live Cell ([1]; 0.28 μg/ml): 100%
- NF-κB % Live Cell ([1]; 0.85 μg/ml): 100%
- NF-κB % Live Cell ([1]; 1.81 μg/ml): 99%
Structure (SMILES): Oc1ccc(/C=C/c2cc(O)cc(O)c2)cc1 [Resveratrol, 3,5,4′-trihydroxy-trans-stilbene]
- activation of Nrf2 against a control [3, 7]: demonstrated activation of Nrf2
- Statistically Significant Result [4, 5]: No statistical difference
- anti-ageing activity / effect on chronological lifespan [4]: significant positive and dose dependent increase of chronological lifespan

- NF-κB % Live Cell ([1]; 1.11 μg/ml): 99%
- NF-κB % Live Cell ([1]; 3.3 μg/ml): 98%
- NF-κB % Live Cell ([1]; 30 μg/ml): 97%
Structure (SMILES): C[C@@H]1O[C@@H](OC[C@H]2O[C@@H](Oc3c(-c4ccc(O)c(O)c4)oc4cc(O)cc(O)c4c3=O)[C@H](O)[C@@H](O)[C@@H]2O)[C@H](O)[C@H](O)[C@H]1O [Rutin, quercetin-3-O-rutinoside]
